Where two headings read alike, the source gives them in different places. Square brackets hold non-standard residues; d marks the D form. Peptide text beside a SMILES is read from it. * marks the point of attachment. X1 = C[N+](C)(C)[C@@H](Cc1ccccc1)C(=O)*; NMe2Phe = CN(C)[C@@H](Cc1ccccc1)C(=O)*; NMeF = CN[C@@H](Cc1ccccc1)C(=O)O

One series has as its target T1, motilin receptor (Oryctolagus cuniculus, UniProt G1T803).
T1 construct: from tissue; host or cells: rabbit antral smooth muscle membranes
Briefly: Determination of motilin receptor binding affinity (displacement of [125I-Tyr7, Nle13]motilin(porcine)). The arrangement: species or system rabbit. How it is done:
The motilin receptor binding affinity of the peptides of this invention was determined by using the general procedure of Bormans, Peelers and Vantrappen, Regul. […] Fitting was performed using the iterative least-squares procedure of the SAS-software package (SAS Institute, Inc., Cary, N.C., USA).

In series [1] the target is segments of rabbit duodenum (Oryctolagus cuniculus, UniProt G1T803). Briefly: Rabbit duodenal smooth muscle strip tissue bath assay. It counts as cell-based. To be noted: negative logarithm of the dose giving 50% of the maximal response to motilin; isotonic contraction of rabbit duodenum segments. The procedure, abridged: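 Isotonic contraction of rabbit duodenal segments after 1 h equilibration and 10^-4 M acetylcholine challenge; cumulative compound curve over 10^-11 to 10^-4 M, then 10^-7 M motilin. Runs discarded if final acetylcholine response differed >5%. EC50 at 50% of maximal motilin response, reported as pEC50.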

The format of series [2] is in vitro ADME, hog. To be noted: pH 7. The method, then:
Like most small linear polypeptides, motilin is believed to be metabolized lo by the brush border cells of the kidney. Therefore, kidney homogenate was chosen as the model system for assessing the relative in vivo biostability of the peptides of this invention. All peptides to be studied were incubated in hog kidney (Pel Freeze, Inc., Rogers, Ark.) (2% w/v; final volume=4 ml; buffer=HEPES pH 7.0) at 25° C. Both initial substrate concentration and internal standard (Fmoc-Gly) concentration were 0.5 mg/ml. In order to determine suitable incubation times and sampling intervals, two experiments were conducted with each polypeptide. The first run served as a rough estimate of peptide stability. All sampling was performed in duplicate. Sample volume was 180 μl.
Sample clean-up was performed by addition of 20 μl of 100% TCA (final volume=200 μl; final TCA concentration=10%). The sample was vortexed for from 5 to 10 seconds to ensure equilibration, then centrifuged to spin out the precipitated proteins. Analysis was carried out on a Waters HPLC system with a WISP autoinjector, a 5μ Vydac C-18 analytical column, and a Waters 481 UV detector set at 214 nm. Injection volume was 80 μl. Initial solvent conditions were […] in Milli-Q water with a 35 minute gradient running to 63% acetonitrile/37% (0.1%) TFA at 1 ml/min.
Polypeptide substrate and metabolite peaks were ratioed to the internal standard and the duplicate sample ratios were averaged. The avenge ratio for the peptide substrate was expressed as a percentage and plotted versus time. First-order kinetics was assumed for data treatment. The rate of disappearance of the substrate was calculated using the Enzfitter program (Biosoft). Relative half-lives were determined from the relationship: […]

In series [3] the test system is canine gastrointestinal tract. Briefly: Contractile activity in the canine gastrointestinal tract. The settings on record: anesthetized dogs, intra-arterial injection to a duodenal segment; amount giving 50% of the calibration response to field stimulation. It counts as in vivo, dog. How it is done:
Mongrel dogs of either sex were anesthetized with sodium pentobarbital 65 mg/kg intravenously. A mid-line incision was made in the abdomen. A duodenal segment was located, the terminal arteries to that segment were identified, and the closest possible artery of the appropriate size was rubbed clean of fat and fascia. A needle of suitable diameter was bent at an angle and the tip inserted in the cleaned artery. The needle was held in position in the artery for approximately 30 seconds until vascular spasm has relaxed and then a catheter assembly was inserted into the artery and tied into position with 000 silk sutures. The fine polyethylene catheter (10-15 cm) was cut to a point at one end with a needle inserted at the other end. The hub of the needle was fitted with a 3-way stopcock and the catheter assembly was filled with heparinized Krebs Ringer bicarbonate containing 10 mM glucose. A bolus of Krebs (free of air) was injected into the arterial catheter and the distribution of blanching in the segment noted. If the area was too large, collateral arteries may be tied off as long as circulation to the area was maintained. A Bass type strain gauge was then sutured to the serosa, and oriented so that circular muscle contractions can be recorded on a Beckman R611 dynograph. Silver wire electrodes were inserted subserosally on either side of the strain gauge and were connected through stimulus isolation units to a Grass S88 electrical stimulator. Electrical field stimulation was applied at 40 V 0.5 ms and 5 pps and the amplitude of the pen recorder was set to contain the contractile response.
All peptides to be injected were dissolved in Krebs and serial dilutions were prepared so that for any concentration the maximum volume to be injected was 1 ml. All solutions except stock Krebs were held on ice for the day of the experiment and discarded at the end of the day. For determination of a dose-response curve, the site was first injected with a bolus of approximately 1 ml of heparinized Krebs to provide a flush control. Peptide agonists (in volumes of 1 ml flushed with 1 ml of Krebs) were injected in logarithmic increments until a response which was maximal in amplitude was obtained. The injection site was then flushed with Krebs containing 0.1% BSA to displace any peptide remaining in the arterial line. For peptides acting at the motilin receptor, care was taken not to inject supramaximal doses as these will induce tachyphylaxis. Therefore, as responses become apparent, 0.3 or 0.5 log unit increments were used. A site was used for a dose-response determination only every 1/2 to 1 hour.
The amplitude of the calibration response to field stimulation in each site was measured and used as 100% for that site. The amplitude of the response to the agonist at each dose was determined, calculated as a % of the calibration response and plotted against the concentration. The ED50 of the response represents the amount of agonist required to produce a response which was 50% of the calibration response.

Setting [4] is: negative logarithm of the concentration displacing 50% of [125I-Tyr7, Nle13]motilin(porcine) from rabbit antral smooth muscle membranes, read-out: pIC50 (converted).

Chain of segments of rabbit duodenum (G1T803 1-400): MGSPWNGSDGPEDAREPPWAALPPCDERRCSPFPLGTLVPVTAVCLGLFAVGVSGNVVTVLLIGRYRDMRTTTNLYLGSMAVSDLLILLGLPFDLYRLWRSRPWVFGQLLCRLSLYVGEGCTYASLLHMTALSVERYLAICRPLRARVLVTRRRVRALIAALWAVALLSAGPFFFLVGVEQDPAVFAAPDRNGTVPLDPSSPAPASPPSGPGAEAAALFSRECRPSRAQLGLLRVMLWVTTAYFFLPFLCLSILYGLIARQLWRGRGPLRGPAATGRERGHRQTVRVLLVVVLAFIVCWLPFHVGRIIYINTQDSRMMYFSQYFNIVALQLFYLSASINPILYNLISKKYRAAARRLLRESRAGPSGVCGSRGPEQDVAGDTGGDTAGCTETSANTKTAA
T1 sequence (G1T803 1-400): as above

For the compound `CC[C@H](C)[C@H](NC(=O)[C@@H]1CCCN1C(=O)[C@@H](NC(=O)[C@H](Cc1ccccc1)NC)C(C)C)C(=O)N[C@@H](Cc1ccccc1)C(=O)N[C@H](C(=O)N[C@@H](Cc1ccc(O)cc1)C(=O)NCC(=O)N[C@@H](CCC(=O)O)C(=O)N[C@@H](CC(C)C)C(=O)N[C@@H](CCC(N)=O)C(=O)N[C@H](CCCNC(=N)N)C(=O)N[C@@H](CC(C)C)C(=O)N[C@@H](CCC(N)=O)C(=O)O)[C@@H](C)O` [[N-MePhe^1, D-Arg^12, Leu^13]pMOT(1-14)] (H-[NMeF]VPIFTYGELQ[dR]LQ-OH), the IC50 at motilin receptor (setting [4]) was 1.91 nM. The same compound returned a pEC50 in series [1] of 7.71. In addition, the T1/2 in series [2] came out at 30. The compound further displayed an ED50 in series [3] of 0.40 nmol.
The compound `CC[C@H](C)[C@H](NC(=O)[C@@H]1CCCN1C(=O)[C@@H](NC(=O)[C@@H](N)Cc1ccccc1)C(C)C)C(=O)N[C@@H](Cc1ccccc1)C(=O)N[C@H](C(=O)N[C@@H](Cc1ccc(O)cc1)C(=O)NCC(=O)N[C@@H](CCC(=O)O)C(=O)N[C@@H](CC(C)C)C(=O)N[C@@H](CCC(N)=O)C(=O)N[C@@H](CCCNC(=N)N)C(=O)N[C@@H](CC(C)C)C(=O)N[C@@H](CCC(N)=O)C(=O)N[C@@H](CCC(=O)O)C(=O)N[C@@H](CCCCN)C(=O)N[C@@H](CCC(=O)O)C(=O)N[C@@H](CCCNC(=N)N)C(=O)N[C@@H](CC(N)=O)C(=O)N[C@@H](CCCCN)C(=O)NCC(=O)N[C@@H](CCC(N)=O)C(=O)O)[C@@H](C)O` [[Leu^13]pMOT(1-22), reference compound] gave an IC50 on motilin receptor (pIC50, negative logarithm of the concentration displacing 50% of [125I-Tyr7, Nle13]motilin(porcine) from rabbit antral smooth muscle membranes) of 0.661 nM. The compound further returned a pEC50 in series [1] of 8.13. In series [2], this compound returned a T1/2 of 30.2. The compound also had an ED50 in series [3] of 0.17 nmol.
With `CC[C@H](C)[C@H](NC(=O)[C@@H]1CCCN1C(=O)[C@@H](NC(=O)[C@H](Cc1ccccc1)[N+](C)(C)C)C(C)C)C(=O)N[C@@H](Cc1ccccc1)C(=O)N[C@H](C(=O)N[C@@H](Cc1ccc(O)cc1)C(=O)NCC(=O)N[C@@H](CCC(=O)O)C(=O)N[C@@H](CC(C)C)C(=O)N[C@@H](C)C(=O)N[C@H](CCCNC(=N)N)C(=O)N[C@@H](CC(C)C)C(=O)N[C@@H](CCCCN)C(N)=O)[C@@H](C)O` (X1-VPIFTYGELA[dR]LK-NH2), the IC50 on motilin receptor (setting [4]) is 1.29 nM. The same compound gave a pEC50 in series [1] of 7.64. This compound also showed a T1/2 in series [2] of 125. This compound also had an ED50 in series [3] of 0.12 nmol.
In the case of `CC[C@H](C)[C@H](NC(=O)[C@@H]1CCCN1C(=O)[C@@H](NC(=O)[C@H](Cc1ccccc1)N(C)C)C(C)C)C(=O)N[C@@H](Cc1ccccc1)C(=O)N[C@H](C(=O)N[C@@H](Cc1ccc(O)cc1)C(=O)NCC(=O)N[C@@H](CCC(=O)O)C(=O)N[C@@H](CC(C)C)C(=O)N[C@@H](C)C(=O)N[C@H](CCCNC(=N)N)C(=O)N[C@@H](CC(C)C)C(=O)N[C@H](CCCCN)C(N)=O)[C@@H](C)O` (NMe2Phe-VPIFTYGELA[dR]L[dK]-NH2), the IC50 on motilin receptor (setting [4]) was 1.45 nM. In addition, in series [1], the pEC50 is listed as 7.69. For the same compound, the T1/2 in series [2] was determined as 47. For the same compound, in series [3], the ED50 worked out at 0.35 nmol.
In the case of `CC[C@H](C)[C@H](NC(=O)[C@@H]1CCCN1C(=O)[C@@H](NC(=O)[C@H](Cc1ccccc1)NC)C(C)C)C(=O)N[C@@H](Cc1ccccc1)C(=O)N[C@H](C(=O)N[C@@H](Cc1ccc(O)cc1)C(=O)NCC(=O)N[C@@H](CCC(=O)O)C(=O)N[C@@H](CC(C)C)C(=O)N[C@@H](CCC(N)=O)C(=O)N[C@@H](CCCNC(=N)N)C(=O)N[C@@H](CC(C)C)C(=O)N[C@@H](CCC(N)=O)C(=O)O)[C@@H](C)O` [[N-MePhe^1, Leu^13]pMOT(1-14)] (H-[NMeF]VPIFTYGELQRLQ-OH), the IC50 at motilin receptor (setting [4]) was 2.63 nM. In addition, in series [1], the pEC50 was found to be 7.64. Moreover, the T1/2 in series [2] is given as 12.8.
As for `CC[C@H](C)[C@H](NC(=O)[C@@H]1CCCN1C(=O)[C@@H](NC(=O)[C@H](Cc1ccccc1)[N+](C)(C)C)C(C)C)C(=O)N[C@@H](Cc1ccccc1)C(=O)N[C@H](C(=O)N[C@@H](Cc1ccc(O)cc1)C(=O)NCC(=O)N[C@@H](CCC(=O)O)C(=O)N[C@@H](CC(C)C)C(=O)N[C@@H](CCC(N)=O)C(=O)N[C@H](CCCNC(=N)N)C(=O)N[C@@H](CC(C)C)C(=O)N[C@@H](CCC(N)=O)C(N)=O)[C@@H](C)O` (X1-VPIFTYGELQ[dR]LQ-NH2), the T1/2 in series [2] was found to be 95. This compound also displayed an ED50 in series [3] of 0.017 nmol.
The matching figures for `CC[C@H](C)[C@H](NC(=O)[C@@H]1CCCN1C(=O)[C@@H](NC(=O)[C@H](Cc1ccccc1)[N+](C)(C)C)C(C)C)C(=O)N[C@@H](Cc1ccccc1)C(=O)N[C@H](C(=O)N[C@@H](Cc1ccc(O)cc1)C(=O)NCC(=O)N[C@@H](CCC(=O)O)C(=O)N[C@@H](CC(C)C)C(=O)N[C@@H](C)C(=O)N[C@H](CCCNC(=N)N)C(=O)N[C@@H](CC(C)C)C(=O)N[C@@H](CCC(N)=O)C(N)=O)[C@@H](C)O` (X1-VPIFTYGELA[dR]LQ-NH2): 131.9 and 0.026 nmol.
In the case of `CC[C@H](C)[C@H](NC(=O)[C@@H]1CCCN1C(=O)[C@@H](NC(=O)[C@H](Cc1ccccc1)[N+](C)(C)C)C(C)C)C(=O)N[C@@H](Cc1ccccc1)C(=O)N[C@H](C(=O)N[C@@H](Cc1ccc(O)cc1)C(=O)NCC(=O)N[C@@H](CCC(=O)O)C(=O)N[C@@H](CC(C)C)C(=O)N[C@@H](CCC(N)=O)C(=O)N[C@H](CCCNC(=N)N)C(=O)N[C@@H](CC(C)C)C(=O)N[C@H](CCC(N)=O)C(N)=O)[C@@H](C)O` (X1-VPIFTYGELQ[dR]L[dQ]-NH2), the IC50 on motilin receptor (setting [4]) is 1.95 nM. This compound also displayed a pEC50 in series [1] of 7.39. The compound also displayed a T1/2 in series [2] of 104.
In turn, `CC[C@H](C)[C@H](NC(=O)[C@@H]1CCCN1C(=O)[C@@H](NC(=O)[C@H](Cc1ccccc1)NC)C(C)C)C(=O)N[C@@H](Cc1ccccc1)C(=O)N[C@H](C(=O)N[C@@H](Cc1ccc(O)cc1)C(=O)NCC(=O)N[C@@H](CCC(=O)O)C(=O)N[C@@H](CC(C)C)C(=O)N[C@@H](CCC(N)=O)C(=O)N[C@H](CCCNC(=N)N)C(=O)N[C@@H](CC(C)C)C(=O)N[C@@H](CCCCN)C(N)=O)[C@@H](C)O` (H-[NMeF]VPIFTYGELQ[dR]LK-NH2) had a T1/2 in series [2] of 41. The same compound came in with an ED50 in series [3] of 0.025 nmol.

For orientation: pEC50 means the EC50 on a negative log10 scale, so that one unit is a factor of ten.

Source of the values: US5422341A, “Motilin-like polypeptides with gastrointestinal motor stimulating activity” (Ohmeda Pharmaceutical Products Division Inc., priority 1993, dated 1995).
